Measured values as given in patent US11701355B2, “Levosimendan for treating pulmonary hypertension with heart failure with preserved ejection fraction (PH-HFpEF)” (Tenax Therapeutics, Inc., priority 2019, dated 2023).
Entries after “also recorded” stand apart in the source; their conditions may differ.

Key:
PH-HFpEF patients [1] = assay: HELP Study double-blind phase: weekly 24-hour infusions for 5 weeks vs placebo, assessment at Week 6; format: in vivo, human; conditions: for mean pulmonary arterial pressure (mPAP) / right atrial pressure (RAP) / six-minute walk test distance: Week 6, compared with placebo; for pulmonary capillary wedge pressure (PCWP): baseline vs Week 6, compared with placebo
Method: Study drug is administered via i.v. infusion over 24 hours weekly through Week 5 via a PICC line. Infusions (Week 2-5) are done in the subject's home by a study nurse. Patients return to the study site for a visit between the Week 3 and Week 4 infusions for assessment of subject safety/response and need for dose adjustment. Each subject is to return on Week 6 for assessment of efficacy and safety on study drug. A right heart catheter will be inserted to obtain hemodynamic measurements at rest and exercise at baseline, the following day after the lead-in 24-hour infusion, and during Week 6.
During the Lead-in phase of the study, a sufficient number of subjects are enrolled and receive levosimendan to identify a total of 36 ‘responders.’ The levosimendan ‘responders’ are randomized 1:1, levosimendan or placebo, for the double-blind phase of the study.
During the Double-blind phase, study drug concentrated solution (2.5 mg/mL), levosimendan or placebo, is mixed with diluent and administered via a PICC line as weekly infusions at 0.075 μg/kg/min for 24 hours. Patients undergo a dose escalation at Week 4 and 5 (0.10 μg/kg/min for 24 hours) unless there has been a meaningful change in blood pressure or heart rate. Infusion rates may be reduced to 0.05 μg/kg/min if the higher dose is not well-tolerated at any time during the initial 5 weeks.
Visits at Weeks 2, 3, 4, and 5 are performed within +/−48 hours of the scheduled visit. Visits for Weeks 2-5 are calculated based on the date of the Lead-in infusion. These visits are performed at the subject's home with the aid of the home health care nurse. The home health care nurse remains with the patient for the first 2-3 hours of the infusion to ensure patient safety. The home health care nurse visits the patient again at 24 hours to stop the infusion and assess the patient's status. During this visit, the following procedures are performed: Record any changes in procedures, prescription and non-prescription drugs, vitamins, and dietary or herbal supplements; measure vital signs prior to starting the infusion, after the first 2 hours (+/−30 min), and after 24 hours (+/−30 min); assess adverse events and study drug administration. At Week 5, all patients are given a new cardiac monitoring sensor to wear on their chest to measure cardiac rhythm, as was done during Screening. The patch is applied prior to (<1 hour) the 24-hour infusion, remain monitoring the patient for a minimum of 72 hours and returned to the investigational site at the Week 6 visit.
Visits at Week 6 should be performed 3-6 days following completion of the Week 5 infusion. During this visit, the following procedures are performed: record any changes in procedures, prescription and non-prescription drugs, vitamins, and dietary or herbal supplements; measure vital signs (BP, PR, respiratory rate, temperature); hematology and clinical chemistry blood samples; conduct 12-lead ECG; echocardiogram within +/−72 hours of the Week 6 visit; right heart catheterization at rest and with exercise; QOL assessment; Child-Pugh Class, NYHA Functional Class, assess adverse events, 6 minute walk test; and pharmacokinetic sampling (sample to be taken prior to enrollment in Open-Label phase.
The 6-minute walk test (6MWT) is performed at approximately the same time of day at each study visit after the Baseline Visit and ideally, one of the first assessments to be performed. The ECHO and subject questionnaire are performed after the 6MWT has been completed. The 6MWT is performed using the methods described in the American Thoracic Society (ATS) Statement: Guidelines for the Six-Minute Walk Test. The test is performed at approximately the same time of day when assessed and by the same evaluator whenever possible.

PH-HFpEF patients [2] = assay: Open-label extension (rollover) study: six-minute walk distance and Likert quality of life; format: in vivo, human
Method: This is an open-label rollover study to allow patients to continue levosimendan treatment if the patient has tolerated treatment in the HELP clinical study seen in Example 1.
Study drug concentrated solution (2.5 mg/mL), levosimendan, is mixed with diluent and administered as weekly infusions at 0.075 μg/kg/min for 24 hrs. Patients may have a dose escalation at Weeks 3 at a rate of 0.10 μg/kg/min for 24 hours, unless there has been a meaningful change in blood pressure or heart rate or other prohibitive rationale.
Visits at Weeks 3, 6, 12, 24, 48 and Follow-Up Visit (at termination) are performed within 72 hours of the scheduled weekly visit. These visits are performed at the investigator's office. The Follow-Up Visit (at termination) is calculated as the earlier of two years from the subject's date of entry into this extension study or as soon as possible after study discontinuation, but within 1 week. During this visit, the following procedures are performed: Vital signs; body weight (Week 3 only); 6MWT; Quality of Life assessment; NYHA Functional Class; Physician Assessment; assess adverse events, and concomitant medications and/or procedures.

[3] = chronic (weekly for 5 weeks) administration, week 6
[4] = weekly 24-hour infusions, listed as Levosimendan
[5] = weekly 24-hour infusions, compared with placebo

## C[C@@H]1CC(=O)NN=C1c1ccc(NN=C(C#N)C#N)cc1 [levosimendan, Levosimendan]
PH-HFpEF patients [1]; [3]
  Cardiac Index (CI): unchanged at week 6
  pulmonary vascular resistance (PVR): unchanged at week 6
PH-HFpEF patients [1]; chronic (weekly for 5 weeks) administration, week 6, listed as Levosimendan
  pulmonary vascular resistance (PVR): did not decrease
PH-HFpEF patients [1]; weekly 24-hour dosing
  safety and tolerability: safe and well tolerated
PH-HFpEF patients [1]; weekly 24-hour infusions
  mean pulmonary arterial pressure (mPAP): significantly greater reduction; also recorded: decrease
  right atrial pressure (RAP): decrease; also recorded: significantly greater reduction
  six-minute walk test distance: significantly increased; also recorded: increase; also recorded: statistically significant improvement
  pulmonary capillary wedge pressure (PCWP): significant vs placebo; also recorded: greater decrease
PH-HFpEF patients [1]; [4]
  mean pulmonary arterial pressure (mPAP): reduces
  right atrial pressure (RAP): improves
  six-minute walk test distance: improves
  pulmonary capillary wedge pressure (PCWP): improves
PH-HFpEF patients [1]; [5]
  cardiac output: significantly greater increase
  proportion of subjects with an improved sense of well-being: significantly higher proportion
PH-HFpEF patients [2]; n=8
  increase of six-minute walk distance, average: 30 meters
  patients with increased overall sense of well-being (five-point Likert Scale): 7 out of 8
PH-HFpEF patients [2]; n=8, baseline 292
  six-minute walk distance after levosimendan, average: 322 meters
PH-HFpEF patients [2]; patients who improved
  improvement on the five-point Likert scale: 1-2 points
